Experimental data as given in publication PMC10636063, “Progesterone activation of β1-containing BK channels involves two binding sites” (Nature Communications, 2023).
Where “and” joins values, the source holds several entries; their conditions need not be identical. Equal entries are not always repeated. Where two headings read alike, the source gives them in different places.

Tests used:
[1] = molecular target: T1, BK β1 subunit (KCNMB1 product) (Rattus norvegicus, UniProt P97678); assay: Thermal unfolding (microscale thermophoresis, Prometheus) of purified wt β1; format: binding; details: for effect on thermal unfolding / binding: vs DMSO
T1 construct: FLAG (DYKDDDDK); made in house; host or cells: CHO cells, transient transfection, anti-flag immunoprecipitation
T1 sequence (P97678 1-191): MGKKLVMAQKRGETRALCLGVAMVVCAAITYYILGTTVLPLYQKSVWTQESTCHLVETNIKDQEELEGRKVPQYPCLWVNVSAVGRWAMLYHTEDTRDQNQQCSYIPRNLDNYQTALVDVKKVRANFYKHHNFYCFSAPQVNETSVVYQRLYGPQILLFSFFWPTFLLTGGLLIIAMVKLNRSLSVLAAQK
Description: BK channel-forming slo1 cDNA (cbv1 isoform; AY330293) was cloned from rat cerebral artery SM cells, and inserted into pcDNA3.1 vector as described. BK β1 cDNA (KCNMB1 product; NP_011452; FJ154955) were isolated from rat cerebral artery SM cells and cloned as described. β4 cDNA (KCNMB4; NP_055320; AY028605) were generously provided by Dr. Ligia Toro. CHO cells were transiently transfected with cbv1 ± β1-, or β4-carrying pcDNA3.1 using X-tremeGENE HP (Sigma-Aldrich). Mutations to β1/4 cDNAs were conducted by Genscript, with sequences being confirmed to be >99% identical to KCNMB1 product; NP_011452 or β4 KCNMB4; NP_055320; respectively. β1/4 and mutant constructs were flag-tagged (DYKDDDDK-tag) by Genscript services for subsequent immunoprecipitation and use in microscale thermophoresis studies.
Wt β1, wt β4 and mutant constructs were purified by immunoprecipitation using Dynabeads Protein G Kit (10007D by Invitrogen) and following the manufacturer’s instructions. Rabbit polyclonal anti-flag antibody (10 µg; Abcam, Cat# ab205606, RRID:AB_2916341) was cross-linked with dynabeads. Transfected CHO cell lysate supernatant was divided into aliquots containing […] per column. Following precipitation, kit instructions for non-denaturing elutions were followed; one elution of 30 µl was collected for each column, and pH was adjusted to 7.5 using UltraPure 1 M Tris-HCI buffer pH 7.5 (cat# 15567027 by Fisher Scientific). PROG stock or vehicle control (DMSO) was added to the eluate to reach PROG final concentrations (0.004-40 µM), all dissolved within the same concentration of DMSO. Glass capillaries were prepared and loaded in triplicates into Prometheus (Nanotemper) and heated from 15° to 95 °C at a rate of 1°/min, the largest thermal scale available to run in the Nanotemper PR.therm-control software. The unfolding profile of a protein is a plot of its fluorescence signal against temperature. The protein is heated at a defined ramp over a specified temperature range. During the heating process, fluorescence is recorded at 330 and 350 nm. The resulting fluorescence ratio change is then analyzed for onset and inflection points. The temperature of onset and inflection is determined using built-in analysis function in Nanotemper PR.therm-control software. The onset of unfolding or aggregation is the temperature at which the channel conformation (unfolding or aggregation) process first starts. […] Onset and inflection points were validated by comparing the first-derivative variations between technical triplicates (high degrees of variations in the first derivative are shown in Supplementary Fig. 1b, c). CRC data obtained from microscale thermophoresis experiments were fitted to a Boltzmann function of the type: y=A1−A2/1+e^x−x0+A2 using Origin 2020 software (OriginLab; OriginLab Corporation).

[2] = system: de-endothelialized, pressurized MCA segments (C57BL/6); assay: Cerebral artery diameter in vitro, de-endothelialized pressurized MCA segments; set-up: species or system mouse
Description: Eight-12 week-old C57BL/6J and KCNMB1^−/− on C57BL/6 background mice of both sexes were deeply anesthetized with isoflurane via inhalation in a tightly sealed jar. Resistance size MCAs (~100 μm in external diameter) were dissected out of the mouse brains after animal euthanasia with sharp scissors. For de-endothelialized records, the endothelium was removed by passing an air bubble into the vessel lumen for 90 s[30]. This method has been consistently used by our group and validated using endothelium-dependent versus endothelium-independent vasodilators[16],[26]. Arteries were cannulated as previously described by our group[26],[40]. MCAs were cut into 5 to 10 mm-long segments under a microscope (Nikon SMZ645). The segment was cannulated at each end, and the artery exterior was continuously perfused with physiologic sodium saline (PSS) of the following composition (mM): 119 NaCl, 4.7 KCl, 1.2 KH2PO4, 1.6 CaCl2, 1.2 MgSO4, 0.023 EDTA, 11 glucose, 24 NaHCO3, pH=7.4. PSS was continuously bubbled with an O2/CO2/N2 (21/5/74%) gas mixture and maintained at 35–37 °C. The artery external wall diameter was measured using the automatic edge-detection function of lonWizard software (lonOptix) via Sanyo VCB-3512T camera (Sanyo Electric Co.). Arteries were first incubated at an intravascular pressure of 10 mm Hg for 10 min. Then intravascular pressure was increased to 60 mmHg and held steady throughout the experiment to induce myogenic tone development and maintenance[19],[30],[51]. Each artery segment was exposed to PROG, PROG-oxime (in presence and absence of 1 µM paxilline) only once to avoid development of desensitization during repeated applications of PROG-containing solution. To determine arterial viability, arterial contractility was probed with a high KCl solution at the end of each experiment. The high KCl solution was composed of the following composition (mM): 63.7 NaCl, 60 KCl, 1.2 KH2PO4, 1.2 MgSO4, 0.023 EDTA, 11 glucose, 24 NaHCO3, 1.6 CaCl2, pH=7.4. Like PSS, the high-KCl solution was continuously bubbled with O2/CO2/N2 (21/5/74%) gas mixture and maintained at 35–37 °C.

[3] = Δ onset to inflection vs concentration
[4] = 10 μM in the presence of 1 μM paxilline

| Structure (SMILES) | concentrations optimal to bind β1 as determined by MST [1] [µM] | delta (Δ) of onset to inflection point ([1]; 0.004 µM PROG, individual records (Fig 1B)) | delta (Δ) of onset to inflection point ([1]; 0.04 µM PROG, individual records (Fig 1B)) | delta (Δ) of onset to inflection point ([1]; 0.4 µM PROG, individual records (Fig 1B)) | delta (Δ) of onset to inflection point ([1]; 1.3 µM PROG, individual records (Fig 1B)) | delta (Δ) of onset to inflection point ([1]; 4 µM PROG, individual records (Fig 1B)) | delta (Δ) of onset to inflection point ([1]; 10 µM PROG, individual records (Fig 1B)) | delta (Δ) of onset to inflection point ([1]; 10 μM PROG, individual records (Fig 1C, SFig1A)) | delta (Δ) of onset to inflection point ([1]; 40 µM PROG, individual records (Fig 1B)) | effect on thermal unfolding / binding [1] | high-affinity binding process: concentration at maximum [1, 3] [µM] | low-affinity binding process: concentration at maximum [1, 3] [µM] | EC50 ([1]; Δ onset to inflection vs concentration, read-out: high-affinity binding process: 50% value) [µM] | EC50 ([1]; Δ onset to inflection vs concentration, read-out: low-affinity binding process: 50% value) [µM] | vasoactive response of MCA segments [2, 4] | vasoactive response of MCA segments ([2]; 10 μM, male and female mice) | percent changes in MCA diameter ([2]; male mice, 10 μM PROG, individual arterial segments) |
| --- | --- | --- | --- | --- | --- | --- | --- | --- | --- | --- | --- | --- | --- | --- | --- | --- | --- |
| CC(=O)[C@H]1CC[C@H]2[C@@H]3CCC4=CC(=O)CC[C@]4(C)[C@H]3CC[C@]12C [PROG, Progesterone] | 4 to 10 | 5.26 and 13.2518 and 6.093 and 5.155 and 14.4223 and 5.701 and 4.973 and 10.2833 and 5.781 and 6.3298 and 7.116 | 5.943 and 2.008 and 8.93 and 4.708 and 3.29 and 2.039 and 5.415 and 2.123 and 6.078 and 9.405 and 14.8911 and 5.538 | 3.821 and 6.41 and 2.29 and 0.9082 and 1.393 and 3.976 and 4.647 and 6.669 and 3.779 and 6.772 | 10.9265 and 4.989 and 3.478 and 3.054 and 2.195 and 4.0816 | 4.355 and 17.5013 and 19.981 and 4.864 and 5.088 and 8.156 and 15.523 and 3.088 and 7.882 and 12.3542 and 0.9184 and 8.919 and 6.947 and 9.668 | 12.73 and 36.72 and 4.56 and 4.587 and 4.664 and 11.45 and 5.307 and 5.645 and 4.368 and 3.818 | 9.668 and 4.355 and 17.5013 and 19.981 and 4.864 and 5.088 and 8.156 and 15.523 and 3.088 and 7.882 and 12.3542 and 0.9184 and 8.919 and 6.947 | 6.851 and 14.1513 and 13.0079 and 8.574 and 9.969 and 3.1593 and 5.59 and 5.656 | decreases the difference in delta between the onset inflection events | 0.4 to 1 | 10 | 0.04 | ~2.2 | lost | dilated MCA segments | 4.2471% and 1.678% and 1.882% and 1.946% and 2.105% and 8.38% and 2.776% and 5.128% and 1.929% and 4.348% |
| CC(=O)C1CCC2C3CCC4=CC(=NOCC(=O)O)CCC4(C)C3CCC12C (centres unmarked) [PROG-oxime, progesterone 3-(O-carboxymethyl)oxime] | – | – | – | – | – | – | – | – | – | actual binding to wt β1 | – | – | – | – | MCA constriction that was preserved | failed to evoke MCA dilation | – |
